Assay results taken from paper PMC9830638, “High-Contrast Detection of Somatostatin Receptor Subtype-2 for Fluorescence-Guided Surgery” (Molecular Pharmaceutics, 2022).

System: orthotopically implanted BON–SSTR2 tumors
Experiment: Simulated clinical workflow, PET/CT imaging in orthotopic BON–SSTR2 tumor model
Type: in vivo, mice
Conditions: orthotopic BON–SSTR2, 7.4 MBq (0.5 nmol), 1 h after injection, n = 5
Method: Mice bearing orthotopically implanted BON–SSTR2 tumors (n = 5) were injected with 7.4 MBq (200 μCi; 0.5 nmol) of ^68Ga-DOTA-TOC and underwent PET/computed tomography (CT) imaging (Albira small animal PET/CT scanner, Bruker) 1 h after injection. […] After euthanasia, tumors were harvested under white light, and the wound bed was re-imaged with NIRF. After a more thorough visual inspection of the wound bed under white light, suspicious lesions were identified and harvested with the intact organ for ex vivo imaging along with other tissues of interest. Tumors, suspicious lesions, and relevant non-tumor tissues were processed for immunohistopathological and mesoscopic imaging.
For CFT two-dimensional (2D) and three-dimensional (3D) reconstruction, 2D images were obtained from individual slices, and an image stack was generated to produce 3D data sets. For PET/CT imaging, region-of-interest analysis was done with Integrated PMOD software (PMOD technologies) to standardize uptake values and determine TBRs.

In the case of “1,4,7,10-tetraazacyclododecane-1,4,7,10-tetraacetic acid-Tyr^3-octreotide [68Ga-DOTA-TOC]”, the “mice with abnormal uptake in the abdomen (PET/CT)” value is reported as 4 out of 5.
